# Values joined by “and” are separate entries in the source; they are usually repeats but may differ in a detail not shown here. Identical values can stand only once. Peptide text beside a SMILES is read from it.
# Key:
# [1] = system: dendritic spines of the hippocampal neurons; experiment: dendritic spine morphology and density in hippocampus, C57BL/6 mice; format: in vivo; settings: 14 days' treatment
# Description: (§1) C57/BL6 adult mice were treated for 14 days with daily intraperitoneal injection of saline solution or peptides at a dose of 3 nmol/g (6-10 animals per experimental group). The animals were maintained in an enclosure at 25 ± 2 °C with an alternating light/dark cycle of 12 hours and had free access to water and food in the form of pellets (standard diet).
# For the dendritic spine analysis, the protocol used is the one previously described by Kim et al, and envisages the use of DilDye lipophilic tracer (Invitrogen) to allow the dendritic spines to be viewed under the confocal microscope. The analysis of the dimensions and morphology of the spines was performed with ImageJ software.
# The spines were classified, based on their morphology, into three different categories: thin, stubby (without a well-defined "neck") and mushroom shaped. To evaluate the possible effect induced by PEP3 on the spine morphology, two animals for each experimental group were perfused after 14 days of treatment and the brain was post-fixed in PFA and cut with a vibratome. To view the dendritic spines the lipophilic tracer DilDye was used. From the images acquired from the confocal microscope the number, length and width of the head of the dendritic spines of the hippocampal neurons were measured.
# [2] = Novel Object Recognition Test (NORT), C57BL/6 mice; format: in vivo; settings: 14 days' treatment
# Description: as §1
# After 14 days of treatment the animals were subjected to the Novel Object Recognition Test (NORT). Such test is structured in three phases: habituation, familiarization and testing. In the first phase, the animal is placed in an empty arena and left free to explore the environment for 5 minutes. The day after, during the familiarization phase, the animal is placed in the same arena in the presence of two objects, identical in shape and size, for 10 minutes. Then the time spent by the animal exploring the individual object is recorded. On the third day, the animal is placed in the area in the presence of an identical object to that used in the familiarization phase and a new one. In this phase the difference in time spent by the animal exploring the familiar object and the new object is evaluated. […] In both phases of the test, the objects are positioned symmetrically and opposite inside the arena, and all the sessions are recorded with the aid of a video camera. […]
# [3] = body weight and food intake during 14 days' treatment; format: in vivo; settings: C57BL/6 mice, daily intraperitoneal 3 nmol/g
# Description: as §1
# For the entire duration of the treatment, on a daily basis, the weight and food intake of each animal were monitored and recorded, in order to evaluate any changes caused by the treatment. 24 hours after the last injection the mice were anaesthetized, and then the blood was taken through cardiac puncture, whereas the brain and liver of the animal were rapidly dissected to perform biochemical or immunohistological analyses.
# The body weight and food intake were monitored and recorded on a daily basis.
# [4] = blood count and platelet count after 14 days' treatment; format: in vivo, mice; design: key to Aggregate s: +, ++, +++ considering the presence of platelet aggregates detected in the blood smear that make the analysis difficult; +, ++, +++ considering the presence of platelet aggregates detected in the blood smear that make the analysis difficult; +, ++, +++ considering the presence of platelet aggregates detected in the blood smear that make the analysis difficult; key to Estimate Plt: A= appropriate platelet estimate
# Description: as §1
# (§2) The blood, collected through cardiac puncture, was analysed with a laser counter (ADVIA 120, Siemens) using specific software for the murine species. From each sample a blood smear was prepared, stained with the May Grünwald-Giemsa method, and used for the morphological analysis of the leukocytes, the red blood cells and the platelet estimate. After the automatic counting of the cells and the preparation of the smear, all the samples were centrifuged and the plasma was transferred into separate test tubes. The analysis of the plasma samples was performed through automatic spectrophotometer (ILAB-300, Instrumentation Laboratory). All the results were compared with the values provided by the company Charles River for mice of the same strain and age.
# The range values are provided by Charles River for C57BL mice aged between 56-70 days, whose blood was collected by cardiac puncture after euthanasia.
# [5] = leukogram (white blood cell count) after 14 days' treatment; format: in vivo, mice
# Description: as §1, §2
# Except for the basophils and eosinophils, the total count and white blood cell (WBC) differential is lower with respect to the range values in all the animals treated. However, we noticed that the reference range values provided by the company Charles River are particularly high with respect to other values provided for other control groups and in other scientific articles in which the same animal strain is analysed. Justification for these differences found is provided by the pre-analytical factors used by Charles River in determining the different reference ranges (such as the method used, the type of sampling used, etc.). Despite this, the analyses of the data performed both individually and by examining the mean and median values in the different groups, show some differences in the values referring to mice treated with the active peptide with respect to the control mice (Table 2).
# The following Table 2 illustrates the results of the white blood cell count. The reference values are provided by Charles River for C57BL mice of 56-70 days.
# [6] = system: GFAP and Iba-1 positive cells; experiment: neuro-inflammation: GFAP and Iba-1 positive cells in hippocampus; format: in vivo, mice; settings: 5 fields, 14 days' treatment
# Description: as §1
# After the sacrifice of the treated animal, a portion of liver and a brain hemisphere were fixed in 10% formalin for 48 hours, and included in paraffin. From each block of paraffin, serial sections 5/6µm thick were obtained. The sections were then stained with haematoxylin-eosin or processed through immunohistochemistry.
# Subsequently, to evaluate the presence of neuro-inflammation, 5 different fields of the hippocampus were considered to verify any presence of GFAP and Iba-1 positive cells.
# [7] = individual animal, 14 days, daily intraperitoneal 3 nmol/g
compound,measurement,setting,value
"N=C(N)NCCC[C@H](NC(=O)CNC(=O)[C@@H](N)Cc1ccc(O)cc1)C(=O)N[C@@H](CCCCN)C(=O)N[C@@H](CCCCN)C(=O)N[C@@H](CCCNC(=N)N)C(=O)N[C@@H](CCCNC(=N)N)C(=O)N[C@@H](CCC(N)=O)C(=O)N[C@@H](CCCNC(=N)N)C(=O)N[C@@H](CCCNC(=N)N)C(=O)N[C@@H](CCCNC(=N)N)C(=O)NCC(=O)NCC(=O)N[C@@H](CO)C(=O)NCC(=O)N[C@@H](CCC(N)=O)C(=O)N1CCC[C@H]1C(=O)N1CCC[C@H]1C(=O)N[C@@H](CCC(=O)O)C(=O)N[C@@H](CCC(N)=O)C(=O)N[C@@H](CCC(=O)O)C(=O)N1CCC[C@H]1C(=O)N[C@@H](CCCNC(=N)N)C(=O)NCC(=O)O [inPEP3, reference compound] (H-YGRKKRRQRRRGGSGQPPEQEPRG-OH)",density of the dendritic spines,[1],10.15±1.05 n. of spines/10µm
same,length of mushroom shaped spines,[1],0.85±0.04
same,length of the spines,[1],0.83±0.02 µm
same,percentage of mushroom shaped spines,[1],30.81 ± 1.78%
same,percentage of stubby spines,[1],42.78 ± 1.86%
same,percentage of thin spines,[1],26.41 ± 1.42%
same,width of the head of spines,[1],0.79±0.02 µm
same,time exploring the new object,[2],59.24 ± 4.58%
same,food intake (ratio daily food intake / mean body weight),[3],99.03±2.03%
same,(Ht),[4]; group mean,48.6%
same,Hb,[4]; group mean,12.3 g/dL
same,Mean Corpuscula r Hb (MCH),[4]; group mean,13.4 pg
same,Mean Corpuscula r Hb Conc. MCHC,[4]; group mean,25.3%
same,Platelet count,[4]; group mean,661000 µL⁻¹
same,Red blood cells,[4]; group mean,9.16e+06 µL⁻¹
same,Red cell distribution width (RDW),[4]; group mean,20.7%
same,Vol. Mean Corp. Vol. (MCV),[4]; group mean,53.1 fL
same,(Ht),[4]; group median,-48.4%
same,Hb,[4]; group median,-12.3 g/dL
same,Platelet count,[4]; group median,-659000 µL⁻¹
same,Red blood cells,[4]; group median,-9.13e+06 µL⁻¹
same,Red cell distribution width (RDW),[4]; group median,-20.5%
same,Vol. Mean Corp. Vol. (MCV),[4]; group median,-53.1 fL
same,Estimate Plt,"[4]; individual animal, blood smear, first part of cell",A
same,Aggregate s,"[4]; individual animal, blood smear, second part of cell",+++
same,(Ht),[4]; [7],50.1% and 49.5% and 47.8% and 48.7% and 48% and 47.3%
same,Hb,[4]; [7],12.6 g/dL (2×) and 12 g/dL (2×) and 12.4 g/dL and 12.1 g/dL
same,Mean Corpuscula r Hb (MCH),[4]; [7],13.5 Pg (3×) and 13.3 Pg and 13.4 Pg (2×)
same,Mean Corpuscula r Hb Conc. MCHC,[4]; [7],25.1% (2×) and 25.5% (2×) and 25.2% and 25.4%
same,Platelet count,[4]; [7],522000 µL⁻¹ and 661000 µL⁻¹ and 656000 µL⁻¹ and 341000 µL⁻¹ and 998000 µL⁻¹ and 790000 µL⁻¹
same,Red blood cells,[4]; [7],9.36e+06 µL⁻¹ and 9.34e+06 µL⁻¹ and 9.01e+06 µL⁻¹ and 9.21e+06 µL⁻¹ and 9.04e+06 µL⁻¹ and 8.97e+06 µL⁻¹
same,Red cell distribution width (RDW),[4]; [7],20.4% and 20.6% and 21.4% and 21.8% and 19.6% and 20.1%
same,Vol. Mean Corp. Vol. (MCV),[4]; [7],53.5 fL and 53 fL and 53.1 fL (2×) and 52.9 fL and 52.7 fL
same,Basophils,[5]; group mean,0 µL⁻¹
same,Eosinophils,[5]; group mean,39.9 µL⁻¹
same,Lymphocytes,[5]; group mean,1935.9 µL⁻¹
same,Monocytes,[5]; group mean,137.1 µL⁻¹
same,Neutrophils,[5]; group mean,990.5 µL⁻¹
same,White blood cells,[5]; group mean,3103.3 µL⁻¹
same,Basophils,[5]; group median,0 µL⁻¹
same,Eosinophils,[5]; group median,(-0.0378). x10^3/µL
same,Lymphocytes,[5]; group median,(-1.837). x10^3/µL
same,Monocytes,[5]; group median,(-0.0918). x10^3/µL
same,Neutrophils,[5]; group median,(-0.2468). x10^3/µL
same,White blood cells,[5]; group median,(-2.295). x10^3/µL
same,Basophils,[5]; [7],0 µL⁻¹
same,Eosinophils,[5]; [7],26.1 µL⁻¹ and 31 µL⁻¹ and 44.8 µL⁻¹ and 62 µL⁻¹ and 36 µL⁻¹ and 39.6 µL⁻¹
same,Lymphocytes,[5]; [7],2218.5 µL⁻¹ and 1271 µL⁻¹ and 1971.2 µL⁻¹ and 2976 µL⁻¹ and 1476 µL⁻¹ and 1702.8 µL⁻¹
same,Monocytes,[5]; [7],104.4 µL⁻¹ and 15.5 µL⁻¹ and 179.2 µL⁻¹ and 372 µL⁻¹ and 72 µL⁻¹ and 79.2 µL⁻¹
same,Neutrophils,[5]; [7],261 µL⁻¹ and 232.5 µL⁻¹ and 2284.8 µL⁻¹ and 2790 µL⁻¹ and 216 µL⁻¹ and 158.4 µL⁻¹
same,White blood cells,[5]; [7],2610 µL⁻¹ and 1550 µL⁻¹ and 4480 µL⁻¹ and 6200 µL⁻¹ and 1800 µL⁻¹ and 1980 µL⁻¹
same,number of GFAP positive cells,[6],31.67±1.12
same,number of Iba-1 positive cells,[6],8.50±0.43

# Source: patent publication EP3727588B1, “ACTIVATOR PEPTIDES OF THE ENZYME ADAM 10 AND RELATED USES IN THE TREATMENT OF ALZHEIMER'S DISEASE” (UNIVERSITA' DEGLI STUDI DI MILANO, priority 2017, dated 2019)
